Measured values from US20250344734A1, “UNSATURATED FATTY ACIDS AND THEIR USE TO MODIFY TASTE” (Firmenich Incorporated, priority 2022, published 2025).

What was measured:
Type in all cases: cell-based
[1] = biological target: T1, T2R01 (TAS2R01) (Homo sapiens, UniProt Q9NYW7); assay: FLIPR calcium assay, block of bitter agonist response, T2R01; details: unsaturated fatty acid concentration of 200 µM, cells stimulated with known bitter agonist, read-out: percentage block of cellular response over baseline, 01
T1 construct: expressed in transfected cells; host or cells: cells expressing a promiscuous G protein (e.g., G16g44)
T1 sequence (Q9NYW7 1-299): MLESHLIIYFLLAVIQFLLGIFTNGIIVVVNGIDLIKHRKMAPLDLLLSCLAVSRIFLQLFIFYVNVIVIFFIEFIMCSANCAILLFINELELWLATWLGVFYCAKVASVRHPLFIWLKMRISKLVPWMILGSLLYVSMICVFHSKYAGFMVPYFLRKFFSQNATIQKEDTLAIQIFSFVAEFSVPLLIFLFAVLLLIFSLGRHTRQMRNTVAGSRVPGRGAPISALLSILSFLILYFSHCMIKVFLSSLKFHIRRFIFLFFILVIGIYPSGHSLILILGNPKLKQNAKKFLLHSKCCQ
Method: (§1) Cells expressing a promiscuous […] (e.g., G16g44) were transfected with vectors encoding 18 functional bitter receptor cDNAs, with one receptor per transfection. The cells were transfected directly in 384-well format high-density plates and incubated for 28 hours. Later, cells were loaded with the Ca-specific dye Fluo4-AM. After an incubation of 60 minutes, excess dye is washed off, and cells are stimulated with a known bitter agonist for each receptor and various unsaturated fatty acids. Changes in intracellular fluorescence are recorded using a FLIPR instrument. Bitter antagonists and corresponding receptors are identified based on percentage inhibition of agonist's activity on a given receptor.
(§2) The above protocol was carried out using 16 different unsaturated fatty acids. A particular T2R receptor was identified as being antagonized by a particular unsaturated fatty acid if it triggered a >25% block of agonist's cellular response at 200 μM concentration of unsaturated fatty acid. […] Table 2 indicates the sixteen (16) compounds tested by their compound number from Table 1 above. The 18 bitter taste receptors screened are the human bitter taste receptors we named. T2R01 (TAS2R01), T2R03 (TAS2R03), T2R04 (TAS2R04), T2R07 (TAS2R07), T2R08 (TAS2R08), T2R09 (TAS2R09), T2R10 (TAS2R10), T2R13 (TAS2R13), T2R14 (TAS2R14), T2R16 (TAS2R16), T2R54 (TAS2R39, T2R61 (TAS2R43), T2R63 (TA2R20), T2R64 (TAS2R31), T2R65 (TAS2R19), T2R67 (TAS2R50), T2R71 (TAS2R41), and T2R75 (TAS2R46). The corresponding IUPHAR nomenclature for each receptor is given in parenthesis. In Table 2, these receptors are identified by the last two digits. For example, T2R01 is indicated as 01. Table 2 reports the percentage block of cellular response over baseline at an unsaturated fatty acid concentration of 200 µM.

[2] = biological target: T2, T2R08 (TAS2R08) (Homo sapiens, UniProt Q9NYW2); assay: FLIPR calcium assay, block of bitter agonist response, T2R08; details: unsaturated fatty acid concentration of 200 µM, cells stimulated with known bitter agonist, read-out: percentage block of cellular response over baseline, 08
T2 construct: expressed in transfected cells; host or cells: cells expressing a promiscuous G protein (e.g., G16g44)
T2 sequence (Q9NYW2 1-309): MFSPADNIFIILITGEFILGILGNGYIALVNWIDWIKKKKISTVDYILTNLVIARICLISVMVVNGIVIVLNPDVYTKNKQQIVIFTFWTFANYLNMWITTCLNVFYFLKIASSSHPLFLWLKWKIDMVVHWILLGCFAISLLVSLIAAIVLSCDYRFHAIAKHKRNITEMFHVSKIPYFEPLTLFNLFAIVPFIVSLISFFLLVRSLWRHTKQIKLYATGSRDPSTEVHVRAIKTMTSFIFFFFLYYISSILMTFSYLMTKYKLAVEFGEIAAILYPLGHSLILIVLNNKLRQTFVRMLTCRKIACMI
Method: as §1, §2

[3] = biological target: T3, T2R10 (TAS2R10) (Homo sapiens, UniProt Q9NYW0); assay: FLIPR calcium assay, block of bitter agonist response, T2R10; details: unsaturated fatty acid concentration of 200 µM, cells stimulated with known bitter agonist, read-out: percentage block of cellular response over baseline, 10
T3 construct: expressed in transfected cells; host or cells: cells expressing a promiscuous G protein (e.g., G16g44)
T3 sequence (Q9NYW0 1-307): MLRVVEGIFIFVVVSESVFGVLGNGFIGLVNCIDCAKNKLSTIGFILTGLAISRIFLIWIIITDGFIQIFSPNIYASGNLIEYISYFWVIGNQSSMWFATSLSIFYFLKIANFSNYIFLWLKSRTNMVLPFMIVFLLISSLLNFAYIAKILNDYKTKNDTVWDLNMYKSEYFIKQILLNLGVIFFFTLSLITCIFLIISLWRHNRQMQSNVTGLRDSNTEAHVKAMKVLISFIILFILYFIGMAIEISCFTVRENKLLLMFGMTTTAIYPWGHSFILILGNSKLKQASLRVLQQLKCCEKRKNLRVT
Method: as §1, §2

[4] = biological target: T4, T2R14 (TAS2R14) (Homo sapiens, UniProt Q9NYV8); assay: FLIPR calcium assay, block of bitter agonist response, T2R14; details: unsaturated fatty acid concentration of 200 µM, cells stimulated with known bitter agonist, read-out: percentage block of cellular response over baseline, 14
T4 construct: expressed in transfected cells; host or cells: cells expressing a promiscuous G protein (e.g., G16g44)
T4 sequence (Q9NYV8 1-317): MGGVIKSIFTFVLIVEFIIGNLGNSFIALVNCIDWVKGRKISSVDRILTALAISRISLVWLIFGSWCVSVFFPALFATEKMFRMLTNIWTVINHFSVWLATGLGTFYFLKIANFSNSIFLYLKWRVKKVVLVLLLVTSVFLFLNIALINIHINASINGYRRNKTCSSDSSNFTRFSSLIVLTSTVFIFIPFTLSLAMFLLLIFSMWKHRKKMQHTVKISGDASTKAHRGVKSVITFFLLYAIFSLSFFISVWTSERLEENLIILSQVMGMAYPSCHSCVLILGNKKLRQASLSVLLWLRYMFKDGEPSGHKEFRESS
Method: as §1, §2

[5] = biological target: T5, T2R54 (TAS2R39 (Homo sapiens, UniProt P59534)); assay: FLIPR calcium assay, block of bitter agonist response, T2R54; details: unsaturated fatty acid concentration of 200 µM, cells stimulated with known bitter agonist
T5 construct: expressed in transfected cells; host or cells: cells expressing a promiscuous G protein (e.g., G16g44)
T5 sequence (P59534 1-338): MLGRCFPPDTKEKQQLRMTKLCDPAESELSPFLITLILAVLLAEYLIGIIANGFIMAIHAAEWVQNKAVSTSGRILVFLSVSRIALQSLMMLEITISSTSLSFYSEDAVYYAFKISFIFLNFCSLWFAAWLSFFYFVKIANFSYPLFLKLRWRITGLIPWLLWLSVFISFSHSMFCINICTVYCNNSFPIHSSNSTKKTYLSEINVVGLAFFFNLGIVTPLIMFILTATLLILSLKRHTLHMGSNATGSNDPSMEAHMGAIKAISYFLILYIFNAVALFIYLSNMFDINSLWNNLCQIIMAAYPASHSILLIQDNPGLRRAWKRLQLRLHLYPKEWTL
Method: as §1, §2

[6] = biological target: T6, T2R75 (TAS2R46) (Homo sapiens, UniProt P59540); assay: FLIPR calcium assay, block of bitter agonist response, T2R75; details: unsaturated fatty acid concentration of 200 µM, cells stimulated with known bitter agonist
T6 construct: expressed in transfected cells; host or cells: cells expressing a promiscuous G protein (e.g., G16g44)
T6 sequence (P59540 1-309): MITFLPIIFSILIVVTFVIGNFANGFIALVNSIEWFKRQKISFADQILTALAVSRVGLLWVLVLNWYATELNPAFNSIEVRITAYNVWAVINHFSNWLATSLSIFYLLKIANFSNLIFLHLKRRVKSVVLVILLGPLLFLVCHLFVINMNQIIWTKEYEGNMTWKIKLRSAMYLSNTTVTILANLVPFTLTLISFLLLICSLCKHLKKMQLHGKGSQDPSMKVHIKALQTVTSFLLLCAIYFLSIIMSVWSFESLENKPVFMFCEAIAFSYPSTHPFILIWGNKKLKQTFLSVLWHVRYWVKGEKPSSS
Method: as §1, §2

SMILES | inhibition at 200 µM [1] [%] | inhibition at 200 µM [2] [%] | inhibition at 200 µM [3] [%] | inhibition at 200 µM [4] [%] | percentage block of cellular response over baseline, 54 [5] [%] | percentage block of cellular response over baseline, 75 [6] [%]
CCC/C=C/C(=O)O [Compound 101] | – | > 25 | > 25 | – | – | –
CCCCCCC/C=C/C(=O)O [Compound 105] | > 60 | > 55 | > 95 | 50 | – | –
CCCCCCCCC/C=C/C(=O)O [Compound 107] | 90 | > 70 | > 95 | > 90 | – | –
CCCCCCCC/C=C/C(=O)O [Compound 106] | 80 | > 70 | > 95 | 80 | – | –
C=CCCCCCCC(=O)O [Compound 116] | > 25 | > 40 | > 35 | – | – | –
CCCCCC/C=C/C(=O)O [Compound 104] | > 35 | > 40 | > 60 | > 40 | – | –
C=CCCCCCC(=O)O [Compound 115] | – | – | > 25 | – | – | –

Continued, values first:

inhibition at 200 µM [1] [%] | inhibition at 200 µM [2] [%] | inhibition at 200 µM [3] [%] | inhibition at 200 µM [4] [%] | percentage block of cellular response over baseline, 54 [5] [%] | percentage block of cellular response over baseline, 75 [6] [%] | SMILES
> 70 | 65 | > 75 | > 65 | >80 | 75 | C=CCCCCCCCCC(=O)O [Compound 118]
> 50 | 50 | > 95 | > 40 | – | – | C=CCCCCCCCCCCC(=O)O [Compound 120]
55 | > 60 | > 80 | > 50 | – | – | CCCCCC/C=C\CCCC(=O)O [Compound 124]
> 30 | – | 50 | – | >90 | 35 | CC(C)=CCCC(C)CC(=O)O (stereo not drawn) [Compound 127]
50 | > 25 | > 90 | – | >80 | 40 | CC(C)=CCCC(C)=CC(=O)O [Compound 128]
– | > 25 | > 30 | > 25 | – | – | CC(C)/C=C/CCCCC(=O)O [Compound 123]
50 | > 55 | > 70 | > 25 | >80 | 40 | C=CCCCCCCCC(=O)O [Compound 117]
